Assay [1] concerns the target T1, Vasoactive intestinal polypeptide receptor 1 (Homo sapiens, UniProt P32241). Also: in other assays of this panel Not Active means under 50% inhibition at 10 µM.
T1 sequence (P32241 whole entry): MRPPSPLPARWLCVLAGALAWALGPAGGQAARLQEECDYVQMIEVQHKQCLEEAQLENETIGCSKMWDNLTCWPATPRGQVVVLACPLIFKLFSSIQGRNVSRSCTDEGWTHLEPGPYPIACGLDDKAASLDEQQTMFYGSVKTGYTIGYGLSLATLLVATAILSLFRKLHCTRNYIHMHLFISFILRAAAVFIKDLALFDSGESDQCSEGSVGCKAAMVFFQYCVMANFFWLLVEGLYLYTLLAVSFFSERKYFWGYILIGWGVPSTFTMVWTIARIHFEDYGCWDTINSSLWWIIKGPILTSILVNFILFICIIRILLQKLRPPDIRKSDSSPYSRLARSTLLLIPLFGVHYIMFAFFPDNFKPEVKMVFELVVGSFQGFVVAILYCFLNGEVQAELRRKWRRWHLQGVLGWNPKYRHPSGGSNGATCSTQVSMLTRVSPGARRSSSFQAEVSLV
The format is cell membranes, Membrane. Conditions: ht-29.

A short description of assay [2]: DRUGMATRIX: Atrial Natriuretic Factor (ANF) radioligand binding (ligand: [125I] ANF (rat)). It is filed as cell membranes, Cavia porcellus, Dunkin-Hartley, Adrenal gland, Membrane. Conditions: Not Active = under 50% inhibition at 10 µM.
Assay [3] deals with T2, Neuropeptide Y receptor type 1 (Homo sapiens, UniProt P25929).
T2 sequence (P25929 whole entry): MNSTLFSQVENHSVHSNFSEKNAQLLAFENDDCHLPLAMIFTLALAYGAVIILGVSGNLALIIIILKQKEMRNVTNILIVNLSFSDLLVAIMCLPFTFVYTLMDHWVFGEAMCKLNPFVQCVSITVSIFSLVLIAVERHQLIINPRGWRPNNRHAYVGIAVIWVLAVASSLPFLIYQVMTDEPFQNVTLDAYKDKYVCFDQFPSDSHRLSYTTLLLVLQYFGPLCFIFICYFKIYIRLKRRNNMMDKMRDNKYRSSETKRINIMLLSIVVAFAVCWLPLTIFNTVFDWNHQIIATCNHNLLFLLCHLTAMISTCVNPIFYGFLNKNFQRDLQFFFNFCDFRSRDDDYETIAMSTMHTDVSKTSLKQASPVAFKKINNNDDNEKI
The format is cell membranes, Membrane. The settings on record: sk-n-mc.

The target in assay [4] is Platelet-activating factor receptor (Homo sapiens, UniProt P25105). It is filed as tissue-based. Also: in other assays of this panel Not Active means under 50% inhibition at 10 µM.
Chain of Platelet-activating factor receptor (P25105 whole entry): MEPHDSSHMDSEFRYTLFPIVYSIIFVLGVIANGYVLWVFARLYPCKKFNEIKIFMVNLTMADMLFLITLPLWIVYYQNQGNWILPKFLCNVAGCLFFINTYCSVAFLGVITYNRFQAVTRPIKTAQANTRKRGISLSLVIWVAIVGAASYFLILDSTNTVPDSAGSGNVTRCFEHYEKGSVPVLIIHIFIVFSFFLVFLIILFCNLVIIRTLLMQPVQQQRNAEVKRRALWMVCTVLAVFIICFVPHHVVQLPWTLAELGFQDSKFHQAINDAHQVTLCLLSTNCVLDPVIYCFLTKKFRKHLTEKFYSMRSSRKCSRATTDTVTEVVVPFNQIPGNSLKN
For assay [5], the target named is Sodium-dependent dopamine transporter (Homo sapiens, UniProt Q01959). Briefly: DRUGMATRIX: Dopamine Transporter radioligand binding (ligand: [125I] RTI-55). The format is cell membranes, CHO-K1, Membrane. Conditions: cho-k1; Not Active = under 50% inhibition at 10 µM.
Chain of Sodium-dependent dopamine transporter (Q01959 whole entry): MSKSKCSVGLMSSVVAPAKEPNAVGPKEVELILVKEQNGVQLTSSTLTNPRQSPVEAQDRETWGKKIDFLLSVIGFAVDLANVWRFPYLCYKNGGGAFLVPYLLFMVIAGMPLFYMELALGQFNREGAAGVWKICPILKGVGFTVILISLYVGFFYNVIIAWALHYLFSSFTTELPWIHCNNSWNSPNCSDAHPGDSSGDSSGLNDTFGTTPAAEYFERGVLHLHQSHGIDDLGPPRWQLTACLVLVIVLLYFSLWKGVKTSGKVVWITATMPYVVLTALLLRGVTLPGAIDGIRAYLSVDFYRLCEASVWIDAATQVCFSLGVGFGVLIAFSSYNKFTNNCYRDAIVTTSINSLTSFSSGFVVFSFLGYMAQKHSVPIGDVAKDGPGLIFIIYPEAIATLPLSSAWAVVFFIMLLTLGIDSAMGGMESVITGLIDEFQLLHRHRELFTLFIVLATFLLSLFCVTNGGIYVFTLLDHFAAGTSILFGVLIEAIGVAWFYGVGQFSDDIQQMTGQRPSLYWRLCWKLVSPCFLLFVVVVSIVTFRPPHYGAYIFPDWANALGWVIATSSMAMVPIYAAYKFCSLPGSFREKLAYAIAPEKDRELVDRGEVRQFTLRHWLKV
The target of assay [6] is Epidermal growth factor receptor (Homo sapiens, UniProt P00533). Briefly: DRUGMATRIX: Protein Tyrosine Kinase, EGF Receptor enzyme inhibition (substrate: Poly(Glu:Tyr)). The settings on record: Not Active = under 50% inhibition at 10 µM. The format is cell-based, Insect cells.
Chain of Epidermal growth factor receptor (P00533 whole entry): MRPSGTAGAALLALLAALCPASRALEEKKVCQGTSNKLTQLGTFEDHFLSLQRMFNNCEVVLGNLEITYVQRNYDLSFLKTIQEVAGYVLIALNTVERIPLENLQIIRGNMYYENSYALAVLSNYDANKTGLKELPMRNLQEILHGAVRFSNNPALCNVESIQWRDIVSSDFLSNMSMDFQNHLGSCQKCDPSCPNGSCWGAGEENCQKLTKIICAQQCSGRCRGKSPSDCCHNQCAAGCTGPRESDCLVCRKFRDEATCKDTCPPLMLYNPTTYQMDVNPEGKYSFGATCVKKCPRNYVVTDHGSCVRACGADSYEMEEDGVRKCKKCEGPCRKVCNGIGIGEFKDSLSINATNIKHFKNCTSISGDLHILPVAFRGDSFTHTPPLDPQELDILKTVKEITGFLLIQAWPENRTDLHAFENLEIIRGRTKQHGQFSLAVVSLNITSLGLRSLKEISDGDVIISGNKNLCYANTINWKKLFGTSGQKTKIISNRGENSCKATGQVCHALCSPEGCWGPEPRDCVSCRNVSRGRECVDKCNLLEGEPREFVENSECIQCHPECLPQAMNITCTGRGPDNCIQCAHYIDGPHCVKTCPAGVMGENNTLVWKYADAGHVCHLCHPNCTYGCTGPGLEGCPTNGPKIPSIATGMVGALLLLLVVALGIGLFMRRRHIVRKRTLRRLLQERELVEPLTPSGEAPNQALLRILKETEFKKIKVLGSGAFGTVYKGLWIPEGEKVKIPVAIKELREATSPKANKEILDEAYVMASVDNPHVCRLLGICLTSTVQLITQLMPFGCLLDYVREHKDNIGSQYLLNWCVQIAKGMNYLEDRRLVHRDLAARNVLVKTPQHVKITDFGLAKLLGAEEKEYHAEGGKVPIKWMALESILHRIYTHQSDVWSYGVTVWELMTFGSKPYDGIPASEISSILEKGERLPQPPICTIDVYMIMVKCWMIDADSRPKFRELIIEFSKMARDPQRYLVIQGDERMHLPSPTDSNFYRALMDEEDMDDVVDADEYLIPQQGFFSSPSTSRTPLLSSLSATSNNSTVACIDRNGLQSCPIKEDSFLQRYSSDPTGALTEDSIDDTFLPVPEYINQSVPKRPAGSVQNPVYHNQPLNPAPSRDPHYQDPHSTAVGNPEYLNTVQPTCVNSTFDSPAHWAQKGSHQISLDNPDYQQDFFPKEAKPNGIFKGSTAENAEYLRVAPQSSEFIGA
Assay [7] deals with cGMP-specific 3',5'-cyclic phosphodiesterase (Homo sapiens, UniProt O76074). In words: DRUGMATRIX: Phosphodiesterase PDE5 enzyme inhibition (substrate: [3H]cGMP + cGMP). It is filed as tissue-based. The settings on record: platelet; Not Active = under 50% inhibition at 10 µM.

Take `COc1cc2c3cc1Oc1cc(ccc1O)C[C@@H]1c4c(cc(OC)c(O)c4Oc4ccc(cc4)C[C@@H]3N(C)CC2)CC[N+]1(C)C.[Cl-]`: the IC50 result in assay [1], in assay [2], in assay [3], in assay [4], in assay [5] and in assay [6] (insect cells) was “Not Active” in each case. For the same compound, the IC50 result in assay [7] is on record as “Not Active”. Moreover, the Ki entry in assay [2] is on record as “Not Active”.
Regarding `CC(C)C(Br)C(=O)NC(N)=O` (stereo not drawn) [BROMISOVALUM], the half-inhibitory concentration (IC50) result in assay [1], in assay [2], in assay [3], in assay [4], in assay [5] and in assay [6] (insect cells) was “Not Active” throughout. Moreover, the IC50 entry in assay [7] is reported as “Not Active”. Moreover, the Ki result in assay [2] is “Not Active”.
Regarding `CCCC1O[C@@H]2C[C@H]3[C@@H]4CCC5=CC(=O)C=C[C@]5(C)[C@H]4[C@@H](O)C[C@]3(C)[C@]2(C(=O)CO)O1` (stereo partly drawn) [BUDESONIDE], the IC50 entry in assay [1], in assay [2], in assay [3], in assay [4], in assay [5] and in assay [6] (insect cells) was “Not Active” in each case. The IC50 entry in assay [7] is recorded as “Not Active”. Also, the Ki result in assay [2] was “Not Active”.
As to `O=C(O)CCCc1ccc(N(CCCl)CCCl)cc1` [CHLORAMBUCIL], the IC50 entry in assay [1], in assay [2], in assay [3], in assay [4], in assay [5] and in assay [6] (insect cells) was “Not Active” each time. In addition, the IC50 result in assay [7] is recorded as “Not Active”. Besides, in assay [2], the Ki result is reported as “Not Active”.
Regarding `CC(C)(C)NCC(O)c1cc(Cl)c(N)c(Cl)c1` (stereo not drawn) [CLENBUTEROL], the IC50 result in assay [1], in assay [2], in assay [3], in assay [4], in assay [5] and in assay [6] (insect cells) was “Not Active” in each case. Besides, the IC50 entry in assay [7] was “Not Active”. Also, the Ki result in assay [2] is reported as “Not Active”.
For the compound `CC1CC(OC(=O)C(O)c2ccccc2)CC(C)(C)C1` (stereo not drawn) [CYCLANDELATE], the IC50 result in assay [1], in assay [2], in assay [3], in assay [4], in assay [5] and in assay [6] (insect cells) was “Not Active” in each case. Also, in assay [7], the IC50 entry is “Not Active”. The Ki entry in assay [2] was “Not Active”.
`CNCCCN1c2ccccc2CCc2ccccc21` [DESIPRAMINE]: the IC50 entry in assay [1], in assay [2], in assay [3], in assay [4], in assay [6] (insect cells) and in assay [7] was “Not Active” in each case. In assay [2], the Ki entry is listed as “Not Active”.
Turning to `O=c1oc2ccccc2c(O)c1Cc1c(O)c2ccccc2oc1=O` [DICUMAROL], the IC50 entry in assay [1], in assay [2], in assay [3], in assay [4], in assay [5] and in assay [6] (insect cells) was “Not Active” throughout. In assay [7], the IC50 result is recorded as “Not Active”. For the same compound, the Ki result in assay [2] is given as “Not Active”.
On to `CC(=O)O[C@@]12CO[C@@H]1C[C@H](O)[C@@]1(C)C(=O)[C@H](O)C3=C(C)[C@@H](OC(=O)[C@H](O)[C@@H](NC(=O)OC(C)(C)C)c4ccccc4)C[C@@](O)([C@@H](OC(=O)c4ccccc4)[C@H]21)C3(C)C.O.O.O` [DOCETAXEL], for which the IC50 result in assay [1], in assay [2], in assay [3], in assay [4], in assay [5] and in assay [6] (insect cells) was “Not Active” throughout. Further, in assay [7], the IC50 result is on record as “Not Active”. For the same compound, the Ki entry in assay [2] is on record as “Not Active”.
`COc1cc2nc(N3CCN(C(=O)C4COc5ccccc5O4)CC3)nc(N)c2cc1OC` (stereo not drawn) [DOXAZOSIN]: the IC50 result in assay [1], in assay [2], in assay [3], in assay [4], in assay [6] (insect cells) and in assay [7] was “Not Active” each time. For the same compound, the Ki result in assay [2] was “Not Active”.
For the compound `C[C@H]1c2cccc(O)c2C(=O)C2=C(O)[C@]3(O)C(=O)C(C(N)=O)=C(O)[C@@H](N(C)C)[C@@H]3[C@@H](O)[C@@H]21.O` [DOXYCYCLINE], the IC50 result in assay [1], in assay [2], in assay [3], in assay [4], in assay [5] and in assay [6] (insect cells) was “Not Active” each time. Moreover, in assay [7], the IC50 result is “Not Active”. Moreover, the Ki entry in assay [2] is recorded as “Not Active”.
Turning to `C[C@]12CC[C@@H]3c4ccc(O)cc4CC[C@H]3[C@@H]1CCC2=O` [ESTRONE], the IC50 entry in assay [1], in assay [2], in assay [3], in assay [4], in assay [5] and in assay [6] (insect cells) was “Not Active” throughout. Moreover, the IC50 entry in assay [7] is “Not Active”. For the same compound, the Ki entry in assay [2] is on record as “Not Active”.
For `CC(C)C(=O)Nc1ccc([N+](=O)[O-])c(C(F)(F)F)c1` [FLUTAMIDE], the IC50 entry in assay [1], in assay [2], in assay [3], in assay [4], in assay [5] and in assay [6] (insect cells) was “Not Active” in each case. Besides, the IC50 result in assay [7] is “Not Active”. In addition, the Ki result in assay [2] is given as “Not Active”.
With `CC1(C)O[C@@H]2C[C@H]3[C@@H]4CCC5=CC(=O)CC[C@]5(C)[C@@]4(F)[C@@H](O)C[C@]3(C)[C@]2(C(=O)CCl)O1` [HALCINONIDE], the IC50 result in assay [1], in assay [2], in assay [3], in assay [4], in assay [5] and in assay [6] (insect cells) was “Not Active” throughout. Also, in assay [7], the IC50 result is given as “Not Active”. Also, the Ki result in assay [2] was “Not Active”.
For `CC1Cc2ccccc2N1NC(=O)c1ccc(Cl)c(S(N)(=O)=O)c1` (stereo not drawn) [INDAPAMIDE], the IC50 result in assay [1], in assay [2], in assay [3], in assay [4], in assay [5] and in assay [6] (insect cells) was “Not Active” in each case. The IC50 result in assay [7] is on record as “Not Active”. For the same compound, the Ki result in assay [2] was “Not Active”.
As to `CCC(C)n1ncn(-c2ccc(N3CCN(c4ccc(OCC5COC(Cn6cncn6)(c6ccc(Cl)cc6Cl)O5)cc4)CC3)cc2)c1=O` (stereo not drawn) [ITRACONAZOLE], the IC50 entry in assay [1], in assay [2], in assay [3], in assay [4], in assay [5] and in assay [6] (insect cells) was “Not Active” each time. In assay [7], the IC50 result was “Not Active”. In addition, the Ki result in assay [2] was “Not Active”.
As to `CCCCN1CCCC[C@H]1C(=O)Nc1c(C)cccc1C` [LEVOBUPIVACAINE], the IC50 entry in assay [1], in assay [2], in assay [3], in assay [4], in assay [5] and in assay [6] (insect cells) was “Not Active” each time. For the same compound, in assay [7], the IC50 entry is “Not Active”. Moreover, in assay [2], the Ki entry was “Not Active”.
For `Sc1ncnc2nc[nH]c12` [MERCAPTOPURINE ANHYDROUS], the IC50 entry in assay [1], in assay [2], in assay [3], in assay [4], in assay [5] and in assay [6] (insect cells) was “Not Active” each time. Further, the IC50 entry in assay [7] was “Not Active”. Also, the Ki entry in assay [2] is “Not Active”.
As to `C[C@](N)(Cc1ccc(O)c(O)c1)C(=O)O` [METHYLDOPA], the IC50 result in assay [1] was “Not Active”; in assay [2] it was “Not Active”; in assay [3] it was “Not Active”; in assay [4], “Not Active”; in assay [5], “Not Active”; in assay [6] (read-out: IC50), 5.23 µM. The IC50 entry in assay [7] was “Not Active”. The Ki entry in assay [2] is on record as “Not Active”.
For `C[C@]12CCC(=O)C=C1CC[C@@H]1[C@@H]2CC[C@@]2(C)[C@H]1CC[C@]2(C)O` [METHYLTESTOSTERONE], the IC50 result in assay [1], in assay [2], in assay [3], in assay [4], in assay [5] and in assay [6] (insect cells) was “Not Active” throughout. Besides, the IC50 entry in assay [7] was “Not Active”. For the same compound, the Ki entry in assay [2] is reported as “Not Active”.

A word on the IC50: it is the midpoint of a concentration-inhibition curve.

These data come from ChEMBL document CHEMBL1909046, “DrugMatrix in vitro pharmacology data”.
